Test results taken from ChEMBL document CHEMBL1157539, “Thousands of chemical starting points for antimalarial lead identification” (Nature, 2010).

Tested on: Plasmodium falciparum
Test: GSK_TCMDC: Inhibition of Plasmodium falciparum 3D7 in whole erythrocytes, using parasite LDH activity as an index of growth.
Format: functional, organism-based
Conditions: Plasmodium falciparum, 3D7

Structure (SMILES)	XC50 [nM]
COC(=O)c1ccc(CC(C)NCC(O)c2cccc(C(F)(F)F)c2)c(Cl)c1 (stereo unspecified)	854
O=C(Nc1ccccc1)N(Cc1ccc(-c2ccc(CNCc3ccc4c(c3)OCO4)cc2)cc1)C1CCN(Cc2ccccc2)CC1	570
Fc1ccc(Nc2ccnc3cc(-c4cccc(CN5CCCCC5)c4)ccc23)c(Cl)c1	31.8
CCN(CC)CCCC(C)Nc1ccnc2cc(Cl)ccc12 (stereo unspecified) [CHLOROQUINE PHOSPHATE]	178
COc1ccc(-c2cccc(NC(=O)c3cccc(C#N)c3)c2)cc1CN1CCCC1	748
CCC1CN2CCc3cc(OC)c(OC)cc3C2CC1CC1NCCc2c1[nH]c1ccc(O)cc21 (stereo unspecified)	103
CCCCCCN1CCC(NCc2ccc(C)cc2)CC1	860
COc1ccc2nccc([C@H](O)CN3CCC(NCc4cc(C)c5c(c4)OCCO5)CC3)c2n1	902
O=C(/C=C/c1ccc(Cl)c(Cl)c1)NCCCCCN1CCC(NC(=O)Nc2cccc(F)c2)CC1	769
COc1cc(F)c2ncc(Cl)c(CCN3CCC(NCc4cc5c(cn4)OCCO5)CC3)c2c1	481
Cc1cccc(CNc2nc(C)cc(N[C@@H](CC(C)C)C(=O)NCc3cccc(F)c3)n2)c1	1180
CC(C)(C)c1cc(NC(=O)c2ccc(Cl)c([N+](=O)[O-])c2)cc(C(C)(C)C)c1	1030
COc1ccc(CN2CCC(CN3CC4(OC3=O)c3ccccc3-c3ccccc34)C2)c(O)c1 (stereo unspecified)	613
c1cc(C2=NC3CCCCC3N2)ccc1OCCCCCOc1ccc(C2=NC3CCCCC3N2)cc1 (stereo unspecified)	228
CCOC(=O)c1cnc2cc(N3CCCC3)c(Cl)cc2c1OCC	108
COc1cc2c(cc1OC)C(c1ccc(Br)cc1)CN(C)CC2 (stereo unspecified)	943
C=CCc1cc(Cc2cnc(N)nc2N)c2ccc(C)nc2c1O	1040
CC(C)C1=C[C@H]2C[C@]3(C4OCCO4)[C@@H]4CC[C@@H](C)[C@H]4C[C@@]2(C(=O)OCC2COCO2)[C@]13C(=O)OC(c1ccccc1)c1ccccc1 (stereo partly specified)	855
CN1CCCN(Cc2ccc(-c3cccc(NC(=O)c4cccc(Cl)c4)c3)cc2)CC1	837
Cc1cc(N2CCN(CC3CCN(C)CC3)CC2)nc(Nc2ccc(Cl)cc2)n1	698
Cc1cc2ncn(-c3nccc(NCc4cccnc4)n3)c2cc1C	664
O=[N+]([O-])c1ccc(-c2ccc(C=NNc3nc(Nc4ccccc4)nc(Nc4ccccc4)n3)o2)cc1	1430
O=C1Nc2ccc3ncccc3c2/C1=C/Nc1ccc(Cn2ccnc2)cc1	659
Cc1[nH]c(C)c(-c2ccc(-c3ccc(F)cc3)nc2)c(=O)c1Br	248

Structure (SMILES)	XC50 [nM]
CN1CCN(CCc2ccc3nc(-c4csc(Cc5cc(Cl)ccc5OCc5ccccc5)n4)[nH]c3c2)CC1	750
CCCCN(C)CC#Cc1ccc(-c2ccc3[nH]c(C)c(Br)c(=O)c3c2)cn1	647
O=C(Cc1ccc[n+]([O-])c1)Nc1cccc(-c2cccc(-c3nc4cc(C(F)(F)F)ccc4[nH]3)c2)c1	784
CNC(=O)c1ccc2[nH]cc(C3CCN(CC4CCC(NC(=O)/C=C/c5ccccc5Cl)CC4)CC3)c2c1 (stereo unspecified)	836
OCc1ccc2nc3c(cc2c1)-c1cccc2cccc-3c12	664
CSC1=NC(=Nc2c(C)cccc2C)C2(CCC(C(C)(C)C)CC2)N1c1ccc(O)cc1 (stereo unspecified)	250
COc1ccc(CCNc2nc(NCCc3cnc[nH]3)nc(NCc3cccc4ccccc34)n2)cc1OC	537
NC1=NC(CCc2ccccc2)N(c2ccccc2)C(N)=N1 (stereo unspecified)	77.1
Nc1c(I)cc(C(=O)Nc2ccc3nc4c(c(N)c3c2)CCCC4)cc1I	143
CN1CCN(CC(=O)Nc2ccc(-c3csc(-c4nc5ccccc5[nH]4)c3)cc2)CC1	1560
Cc1noc(C)c1-c1cccc(CNCc2cccc(-c3ccc(-c4nc5cccc(C)c5[nH]4)s3)c2)c1	211
O=C(C1CC1)N1c2ccccc2CCc2ccccc21	833
CC(=O)Nc1ccc(CN2CCC(N(C)c3cc(NC(=O)c4cccc(F)c4)ccn3)CC2)cc1	1380
O=C(/C=C/c1ccc(C(F)(F)F)cc1)NCCCCCN1CCN(C(=O)Nc2ccc(Cl)cc2)CC1	1010
FC(F)(F)c1ccc2[nH]c(-c3ccc(-c4ccc(CNCc5cnn(-c6ccccc6)n5)cc4)cc3)nc2c1	433
COc1ccc2nccc([C@@H](O)CN3CCC(NCCOc4ccc(F)cc4F)CC3)c2c1	141
CN(C)CCCNCc1ccc(-c2ccc(F)c(Cl)c2)o1	802
CCOC(=O)c1ccc(NCc2ccccn2)cc1	626
COC(=O)c1cccc(CNCc2ccc(-c3ccc(-c4nc5cc(C(F)(F)F)ccc5[nH]4)cc3)cc2)c1	298
COc1ccc(Cc2cnc3nc(N)nc(N)c3c2C)cc1OC	9.41
COc1ccc2nc(NC(N)=NC(=O)Nc3ccccc3)nc(C)c2c1	1280
Cn1nc(-c2ccc(NC(=O)Nc3cc(C(F)(F)F)ccc3F)c(F)c2)c2cnc(NCCCN3CCOCC3)nc21	604
CN1CCN(c2ccnc3ccc(NC(=O)Nc4ccc5c(c4)CCC5=O)cc23)CC1	330
Cc1cc(Nc2cccc(Cl)c2)nc2ccc(NC(=O)c3ccc(=O)[nH]c3)cc12	995

Structure (SMILES)	XC50 [nM]
c1ccc2cc3c(NCCN4CCOCC4)ccnc3cc2c1	168
C=C[C@]1(C)C[C@@H](OC(=O)CSC2CN3CCC2C3)[C@@]2(C)C3C(=O)CC[C@@]3(CC[C@H]2C)[C@@H](C)[C@@H]1O (stereo partly specified)	689
CC(=O)C1(c2ccccc2)CCN(CCC2(c3ccc(Cl)c(Cl)c3)CN(C(=O)Nc3cccc(C(F)(F)F)c3)CCO2)CC1 (stereo unspecified)	1050
O=C(/C=C/c1ccc(Cl)c(Cl)c1)NCC1CCC(N2CCC(c3c[nH]c4ccccc34)CC2)CC1 (stereo unspecified)	172
CC(NC(=O)c1ccc(O)c(-c2ccc(Cl)c(Cl)c2)c1)C(=O)NCCN1CCCC1 (stereo unspecified)	759
COc1ccc2c(NN=Cc3cccnc3)ccnc2c1	684
COc1ccc(CNCCc2cccs2)cc1-c1cccc(S(=O)(=O)NCCN2CCCC2)c1	877
SC(=Nc1ccc(Cl)c(Cl)c1)NN=Cc1ccccn1	768
O=C(CCc1c[nH]cn1)Nc1cccc(-c2ccc(-c3nc4ccccc4[nH]3)s2)c1	759
COCc1nc(-c2ccccc2)nc(N2CCN(C(=O)NC(C)C)CC2)c1Cc1ccccc1F	1000
CN1CCN(c2ccnc3cc4c(cc23)N(Cc2ccccc2)CC4)CC1	1140
O=C(NCC1CCC(C(=O)NCCN2CCCCC2)CC1)c1ccc(O)c(-c2ccc(Cl)c(Cl)c2)c1 (stereo unspecified)	1170
Cc1[nH]c2ccc(-c3ccccc3)cc2c(=O)c1Br	162
Cc1cc(N/N=C/c2cccc([N+](=O)[O-])c2)c2ccccc2n1	728
COc1cccc(NC(=O)Nc2ccc(Nc3nc(C)cc(N4CCCC4)n3)cc2)c1	198
Nc1ncc(-c2ccc(F)cc2)cc1-c1nc2ccc(Cl)cc2[nH]1	753
CCc1cn2c3c(cc(C(=O)N[C@@H](Cc4cc(F)cc(F)c4)[C@H](O)CNC4CC4)cc13)N(C)S(=O)(=O)CC2	119
CN1CCN(CCCN(Cc2cccc(-c3cccc(CNCc4ccc5c(c4)OCO5)c3)c2)C(=O)CCC2CCCC2)CC1	952
CC(=O)OCCN1C(=O)c2ccc3c4c(ccc(c24)C1=O)C(=O)N(CCOC(C)=O)C3=O	238
CCCC1N=C(N)N=C(N)N1c1ccc(OC)cc1 (stereo unspecified)	234
Cc1cc(C)cc(CC(=O)N2CCC(n3c(C)nc4ccc(C)cc43)CC2)c1	534
CC[C@H]1CN2CC[C@@H]1C[C@H]2[C@H](O)c1cc(N2CCOCC2)nc2ccc(OC)cc12	118
c1ccc2c(Nc3ccc(Oc4ccc(Nc5c6ccccc6nc6ccccc56)cc4)cc3)c3ccccc3nc2c1	518
O=C(NC1CCCCC1)N(Cc1ccc(-c2ccc(CNCc3ccc4c(c3)OCO4)cc2)cc1)C1CCN(Cc2ccccc2)CC1	690

Structure (SMILES)	XC50 [nM]
CC1N=C(N)N=C(N)N1OCc1cccc2ccccc12 (stereo unspecified)	3.2
O=C1SC(S)=NC1=CNCCCCCCO	850
CC(C)(C)NCCN(Cc1ccc(-c2ccc(C(F)(F)F)cc2)cc1)C(=O)Cn1c(SCc2ccc(F)cc2)nc(=O)c2c1CCC2	860
CNC(=O)c1ccc2[nH]cc(C3CCN(CC4CCC(NC(=O)/C=C/c5ccc(Cl)c(Cl)c5)CC4)CC3)c2c1 (stereo unspecified)	1010
CC(C)Cc1cn(-c2nc(C(=N)N)cs2)c2cc(Cl)ccc12	154
O=C(CN(c1cccc(C(F)(F)F)c1)S(=O)(=O)c1ccc(Cl)cc1)NCCC(c1ccccc1)c1ccccc1	743
CC(NC(=O)NC1CCC(CCN2CCCc3ccccc32)CC1)c1cccc2ccccc12 (stereo unspecified)	1020
Cc1nc(N)nc(N)c1OCc1cccc2c1ccc1ccccc12	98.8
Clc1ccc(OCCC2CCN(CCCCCCCN3CCC(CCOc4ccc(Cl)c(Cl)c4)CC3)CC2)cc1Cl	624
Cc1cccc2nc(-c3ccc(-c4ccc(C(=O)NCCN5CCCC5)cc4)s3)[nH]c12	901
Cc1nc(C)c(-c2ccc(C(F)(F)F)cc2)c(O)c1Br	142
CN(CCCNc1ccc(C(=O)Nc2ccc(C(F)(F)F)cc2)cc1[N+](=O)[O-])Cc1ccccc1	229
O=S(=O)(NCCN1CCCC1)c1ccc(-c2cccc(CNCc3ccccc3)c2)s1	806
N#Cc1cccc(COC(=O)C2=C(COc3ccccc3Cl)NC(=O)NC2c2c[nH]c3cnccc23)c1 (stereo unspecified)	792
O=C(Nc1cc(C(F)(F)F)ccc1-n1cncn1)C1(c2ccccc2)CC1	60.1
Cc1ccc(-c2nc(N3CCN(C(=O)c4ccco4)CC3)c3ccccc3n2)cc1	970
CC(C)COc1ccc(Cl)cc1Cc1ccc(-c2nc3cc(N4CCN(C)CC4)ccc3[nH]2)o1	945
COc1ccc(CNC2Cc3ccccc3C2)cc1-c1ccc(S(=O)(=O)NCc2ccccc2)s1	832
CC1(C)NC(N)=NC(=N)N1OCCNCc1ccc(Cl)cc1	160
CC(C)N1CCC(N(Cc2ccc(-c3ccc(C(F)(F)F)cc3)cc2)C(=O)Cn2c(CCc3cccc(F)c3F)cc(=O)c3cn(C)nc32)CC1	1170
Cn1c(NC(=O)c2ccc(CNC(=O)c3ccc(O)c(-c4ccc(Cl)c(Cl)c4)c3)cc2)nc2ccccc21	842
Cc1noc(-c2cccs2)c1C(=O)NC(C)c1cccc2ccccc12 (stereo unspecified)	129
CN(CCCN(C)c1cc(NC(=O)c2ccc(F)cc2)ccn1)Cc1cccc(O)c1	1210
Cc1cc(NC(=O)c2ccco2)ccc1OC1CCN(Cc2ccccc2)CC1	531
